Results published in the kinase profiling compilation of Christmann-Franck et al. (2016).

How the values were obtained:
Assay in all cases: radiometric filter-binding kinase assay, Kinase HotSpot
Conditions in all cases: compound 0.5 µM; ATP 10 µM
NEK11 (human) = NEK11 (human) (UniProt Q8NG66)
CAMKK2 (human) = CAMKK2 (human) (UniProt Q96RR4)
CDK4 CCND1 (human) = CDK4 CCND1 (human) (UniProt P24385+P11802)
IKBKE (human) = IKBKE (human) (UniProt Q14164)
EPHA8 (human) = EPHA8 (human) (UniProt P29322)
GRK4 (human) = GRK4 (human) (UniProt P32298)
MAP4K5 (human) = MAP4K5 (human) (UniProt Q9Y4K4)
MAP4K5 (human), sequence (Q9Y4K4 whole entry, looked up): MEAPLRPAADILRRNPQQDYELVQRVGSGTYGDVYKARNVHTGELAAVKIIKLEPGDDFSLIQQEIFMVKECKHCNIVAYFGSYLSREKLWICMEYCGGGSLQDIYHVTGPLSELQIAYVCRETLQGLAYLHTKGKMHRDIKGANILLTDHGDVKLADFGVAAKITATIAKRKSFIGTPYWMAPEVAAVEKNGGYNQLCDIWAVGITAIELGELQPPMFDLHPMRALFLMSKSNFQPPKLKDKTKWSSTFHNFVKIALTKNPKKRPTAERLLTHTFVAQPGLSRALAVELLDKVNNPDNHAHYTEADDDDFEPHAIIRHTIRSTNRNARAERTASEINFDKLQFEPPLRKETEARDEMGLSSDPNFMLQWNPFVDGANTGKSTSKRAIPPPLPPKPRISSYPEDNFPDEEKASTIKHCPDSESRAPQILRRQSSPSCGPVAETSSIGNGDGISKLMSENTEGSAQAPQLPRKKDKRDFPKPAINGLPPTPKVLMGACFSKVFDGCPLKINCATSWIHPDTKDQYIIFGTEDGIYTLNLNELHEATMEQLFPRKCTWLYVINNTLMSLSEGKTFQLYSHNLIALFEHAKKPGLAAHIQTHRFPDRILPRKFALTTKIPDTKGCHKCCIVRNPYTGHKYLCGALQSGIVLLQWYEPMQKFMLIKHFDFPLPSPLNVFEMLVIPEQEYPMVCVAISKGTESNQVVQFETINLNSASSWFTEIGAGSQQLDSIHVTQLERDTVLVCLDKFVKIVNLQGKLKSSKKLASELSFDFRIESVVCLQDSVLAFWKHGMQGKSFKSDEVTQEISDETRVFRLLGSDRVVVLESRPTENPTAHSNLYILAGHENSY

PRKACA (human) = PRKACA (human) (UniProt P17612)
MAP4K4 (human) = MAP4K4 (human) (UniProt O95819)
PRKCA (human) = PRKCA (human) (UniProt P17252)
RET (human) = RET (human) (UniProt P07949)
RET (human), sequence (P07949 whole entry, looked up): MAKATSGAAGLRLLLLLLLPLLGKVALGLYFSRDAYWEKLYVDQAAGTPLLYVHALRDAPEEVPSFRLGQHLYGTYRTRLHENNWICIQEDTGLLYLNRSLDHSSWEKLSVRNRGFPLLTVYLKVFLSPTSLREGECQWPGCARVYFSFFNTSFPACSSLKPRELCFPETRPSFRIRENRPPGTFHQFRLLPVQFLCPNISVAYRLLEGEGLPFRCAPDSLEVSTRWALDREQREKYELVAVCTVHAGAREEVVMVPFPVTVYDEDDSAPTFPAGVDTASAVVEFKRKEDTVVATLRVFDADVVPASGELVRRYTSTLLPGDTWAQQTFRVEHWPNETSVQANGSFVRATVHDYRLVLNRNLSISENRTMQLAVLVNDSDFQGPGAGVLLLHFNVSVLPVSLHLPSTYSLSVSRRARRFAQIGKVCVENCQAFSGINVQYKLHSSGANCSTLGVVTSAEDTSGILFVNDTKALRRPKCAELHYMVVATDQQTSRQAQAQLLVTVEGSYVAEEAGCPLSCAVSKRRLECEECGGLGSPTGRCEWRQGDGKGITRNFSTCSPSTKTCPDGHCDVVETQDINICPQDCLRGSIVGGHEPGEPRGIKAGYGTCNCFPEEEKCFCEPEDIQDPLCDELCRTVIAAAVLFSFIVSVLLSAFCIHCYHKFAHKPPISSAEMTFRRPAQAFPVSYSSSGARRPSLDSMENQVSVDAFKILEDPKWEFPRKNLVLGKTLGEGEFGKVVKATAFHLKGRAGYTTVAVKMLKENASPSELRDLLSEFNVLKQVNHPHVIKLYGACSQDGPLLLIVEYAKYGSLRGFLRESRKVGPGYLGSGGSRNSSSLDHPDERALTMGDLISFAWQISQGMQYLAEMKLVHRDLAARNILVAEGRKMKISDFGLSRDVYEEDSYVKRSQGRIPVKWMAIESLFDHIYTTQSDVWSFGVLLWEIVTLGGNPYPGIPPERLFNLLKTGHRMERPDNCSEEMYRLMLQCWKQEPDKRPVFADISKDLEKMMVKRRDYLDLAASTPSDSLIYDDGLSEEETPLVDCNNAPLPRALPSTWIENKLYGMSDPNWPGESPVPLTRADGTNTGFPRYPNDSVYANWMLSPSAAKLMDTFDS

PLK2 (human) = PLK2 (human) (UniProt Q9NYY3)
RAF1 (human) = RAF1 (human) (UniProt P04049)
DYRK3 (human) = DYRK3 (human) (UniProt O43781)
CSNK2A2 (human) = CSNK2A2 (human) (UniProt P19784)
CSNK2A2 (human), sequence (P19784 whole entry, looked up): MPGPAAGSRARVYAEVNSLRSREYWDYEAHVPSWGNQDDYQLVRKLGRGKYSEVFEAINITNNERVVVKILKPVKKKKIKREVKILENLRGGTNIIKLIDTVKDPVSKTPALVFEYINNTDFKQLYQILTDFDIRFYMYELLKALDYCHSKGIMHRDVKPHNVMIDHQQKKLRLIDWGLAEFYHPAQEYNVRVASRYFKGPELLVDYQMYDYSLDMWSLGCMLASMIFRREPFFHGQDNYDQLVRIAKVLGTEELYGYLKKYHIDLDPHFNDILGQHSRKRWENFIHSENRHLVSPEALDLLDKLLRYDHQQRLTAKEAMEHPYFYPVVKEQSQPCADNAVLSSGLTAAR

PDGFRB (human) = PDGFRB (human) (UniProt P09619)
CSNK1A1 (human) = CSNK1A1 (human) (UniProt P48729)
CSNK1A1 (human), sequence (P48729 whole entry, looked up): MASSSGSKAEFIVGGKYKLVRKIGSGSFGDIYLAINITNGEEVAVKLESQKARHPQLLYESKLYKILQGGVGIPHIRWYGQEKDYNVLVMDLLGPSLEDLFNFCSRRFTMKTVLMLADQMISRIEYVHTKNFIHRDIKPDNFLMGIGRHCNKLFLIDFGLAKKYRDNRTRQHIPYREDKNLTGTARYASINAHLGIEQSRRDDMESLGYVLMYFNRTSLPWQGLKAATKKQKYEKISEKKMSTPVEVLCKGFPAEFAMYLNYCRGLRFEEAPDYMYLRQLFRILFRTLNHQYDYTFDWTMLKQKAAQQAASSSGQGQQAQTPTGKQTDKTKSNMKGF

TSSK2 (human) = TSSK2 (human) (UniProt Q96PF2)
PRKD3 (human) = PRKD3 (human) (UniProt O94806)
RPS6KA5 KD2 (human) = RPS6KA5 KD2 (human) (UniProt O75582)
ADRBK2 (human) = ADRBK2 (human) (UniProt P35626)
CSNK1E (human) = CSNK1E (human) (UniProt P49674)
CSNK1E (human), sequence (P49674 whole entry, looked up): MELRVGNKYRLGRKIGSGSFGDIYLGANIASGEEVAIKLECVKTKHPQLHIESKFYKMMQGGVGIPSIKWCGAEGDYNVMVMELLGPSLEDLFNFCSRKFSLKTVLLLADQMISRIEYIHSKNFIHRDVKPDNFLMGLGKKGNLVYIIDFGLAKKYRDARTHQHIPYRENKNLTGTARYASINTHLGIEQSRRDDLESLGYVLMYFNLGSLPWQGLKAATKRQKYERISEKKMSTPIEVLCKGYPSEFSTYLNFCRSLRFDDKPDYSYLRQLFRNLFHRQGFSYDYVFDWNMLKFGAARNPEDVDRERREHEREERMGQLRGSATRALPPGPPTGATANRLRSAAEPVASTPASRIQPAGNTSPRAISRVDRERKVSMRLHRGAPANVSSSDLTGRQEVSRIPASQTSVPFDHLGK

MAP3K7 TAB1 (human) = MAP3K7 TAB1 (human) (UniProt O43318+Q15750)
MYLK2 (human) = MYLK2 (human) (UniProt Q9H1R3)
KDR (human) = KDR (human) (UniProt P35968)
MUSK (human) = MUSK (human) (UniProt O15146)
PKN1 (human) = PKN1 (human) (UniProt Q16512)
EPHA5 (human) = EPHA5 (human) (UniProt P54756)
INSR (human) = INSR (human) (UniProt P06213)
STK11 (human) = STK11 (human) (UniProt Q15831)
MLTK (human) = MLTK (human) (UniProt Q9NYL2)
MAP3K14 (human) = MAP3K14 (human) (UniProt Q99558)
FLT1 (human) = FLT1 (human) (UniProt P17948)
CLK3 (human) = CLK3 (human) (UniProt P49761)
EPHB2 (human) = EPHB2 (human) (UniProt P29323)
ERBB4 (human) = ERBB4 (human) (UniProt Q15303)
ERBB4 (human), sequence (Q15303 whole entry, looked up): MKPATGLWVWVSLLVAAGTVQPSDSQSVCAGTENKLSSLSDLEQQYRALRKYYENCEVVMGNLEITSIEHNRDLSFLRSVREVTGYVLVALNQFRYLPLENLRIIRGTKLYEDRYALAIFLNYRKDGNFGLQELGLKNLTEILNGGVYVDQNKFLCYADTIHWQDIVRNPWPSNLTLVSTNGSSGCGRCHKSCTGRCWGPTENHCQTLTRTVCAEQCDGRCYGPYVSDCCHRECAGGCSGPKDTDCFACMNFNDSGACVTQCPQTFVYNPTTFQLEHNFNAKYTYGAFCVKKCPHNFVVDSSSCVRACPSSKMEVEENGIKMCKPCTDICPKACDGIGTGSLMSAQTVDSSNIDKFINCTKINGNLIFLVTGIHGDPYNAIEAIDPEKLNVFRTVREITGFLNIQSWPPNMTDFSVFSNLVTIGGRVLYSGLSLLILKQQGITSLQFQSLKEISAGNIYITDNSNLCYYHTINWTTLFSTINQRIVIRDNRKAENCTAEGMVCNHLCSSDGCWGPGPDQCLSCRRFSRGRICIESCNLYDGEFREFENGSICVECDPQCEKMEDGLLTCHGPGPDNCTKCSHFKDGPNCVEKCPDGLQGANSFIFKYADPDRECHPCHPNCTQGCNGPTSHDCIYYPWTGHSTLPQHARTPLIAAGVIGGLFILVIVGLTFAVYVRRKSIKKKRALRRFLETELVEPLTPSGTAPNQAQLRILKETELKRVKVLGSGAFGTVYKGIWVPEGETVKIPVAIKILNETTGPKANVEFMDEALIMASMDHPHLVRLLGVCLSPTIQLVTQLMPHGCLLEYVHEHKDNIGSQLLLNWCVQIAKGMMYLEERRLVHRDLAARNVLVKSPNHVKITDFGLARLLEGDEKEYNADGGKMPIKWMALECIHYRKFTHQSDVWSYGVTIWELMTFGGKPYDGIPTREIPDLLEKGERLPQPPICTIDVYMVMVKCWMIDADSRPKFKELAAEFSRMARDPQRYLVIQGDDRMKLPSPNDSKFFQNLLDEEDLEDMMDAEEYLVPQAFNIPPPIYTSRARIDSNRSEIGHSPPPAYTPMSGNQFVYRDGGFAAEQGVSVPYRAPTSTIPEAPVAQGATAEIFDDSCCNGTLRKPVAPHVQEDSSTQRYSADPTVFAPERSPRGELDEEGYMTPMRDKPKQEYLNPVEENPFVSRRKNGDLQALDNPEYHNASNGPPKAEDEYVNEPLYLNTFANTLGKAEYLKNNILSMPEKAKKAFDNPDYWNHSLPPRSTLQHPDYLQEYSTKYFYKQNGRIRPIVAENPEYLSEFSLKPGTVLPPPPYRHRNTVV

PAK3 (human) = PAK3 (human) (UniProt O75914)
AKT1 (human) = AKT1 (human) (UniProt P31749)
IKBKB (human) = IKBKB (human) (UniProt O14920)
MAPKAPK2 (human) = MAPKAPK2 (human) (UniProt P49137)
PASK (human) = PASK (human) (UniProt Q96RG2)
PRKCG (human) = PRKCG (human) (UniProt P05129)

CDK4 CCND1 (human), sequence (P11802 whole entry, looked up): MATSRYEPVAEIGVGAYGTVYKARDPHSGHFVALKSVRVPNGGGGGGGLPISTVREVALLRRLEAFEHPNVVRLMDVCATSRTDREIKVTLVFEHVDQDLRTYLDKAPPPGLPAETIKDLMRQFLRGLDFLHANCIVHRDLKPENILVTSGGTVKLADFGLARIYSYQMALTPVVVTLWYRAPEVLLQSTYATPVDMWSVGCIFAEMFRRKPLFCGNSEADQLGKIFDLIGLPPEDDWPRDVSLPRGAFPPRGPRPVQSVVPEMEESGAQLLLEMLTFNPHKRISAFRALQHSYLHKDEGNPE
CDK4 CCND1 (human), sequence (P24385 whole entry, looked up): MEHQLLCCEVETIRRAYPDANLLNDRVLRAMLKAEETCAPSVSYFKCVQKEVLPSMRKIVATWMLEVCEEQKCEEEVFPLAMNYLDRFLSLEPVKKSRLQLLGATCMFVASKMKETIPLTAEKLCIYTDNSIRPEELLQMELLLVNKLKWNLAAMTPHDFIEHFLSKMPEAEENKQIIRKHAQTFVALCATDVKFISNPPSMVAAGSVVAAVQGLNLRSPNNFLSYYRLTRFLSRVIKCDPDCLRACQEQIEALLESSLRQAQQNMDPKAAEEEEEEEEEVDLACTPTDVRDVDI

Which results are given for `COc1cc2ncnc(Nc3cccc(Cl)c3)c2cc1OC`?
residual activity (NEK11 (human)): 96.9%; residual activity (CAMKK2 (human)): 97.5%; residual activity (CDK4 CCND1 (human)): 103%; residual activity (IKBKE (human)): 101%; residual activity (EPHA8 (human)): 81.5%; residual activity (GRK4 (human)): 102%; residual activity (MAP4K5 (human)): 59.5%; residual activity (PRKACA (human)): 98.6%; residual activity (MAP4K4 (human)): 68.1%; residual activity (PRKCA (human)): 111%; residual activity (RET (human)): 35.3%; residual activity (PLK2 (human)): 102%; residual activity (RAF1 (human)): 78.4%; residual activity (DYRK3 (human)): 96.3%; residual activity (CSNK2A2 (human)): 92.3%; residual activity (PDGFRB (human)): 100%; residual activity (CSNK1A1 (human)): 92.5%; residual activity (TSSK2 (human)): 94.8%; residual activity (PRKD3 (human)): 86.5%; residual activity (RPS6KA5 KD2 (human)): 97.8%; residual activity (ADRBK2 (human)): 99.9%; residual activity (CSNK1E (human)): 75.3%; residual activity (MAP3K7 TAB1 (human)): 96.9%; residual activity (MYLK2 (human)): 90.1%; residual activity (KDR (human)): 74.7%; residual activity (MUSK (human)): 88.3%; residual activity (PKN1 (human)): 96.8%; residual activity (EPHA5 (human)): 68.3%; residual activity (INSR (human)): 77.6%; residual activity (STK11 (human)): 96.8%; residual activity (MLTK (human)): 99.3%; residual activity (MAP3K14 (human)): 107%; residual activity (FLT1 (human)): 74.4%; residual activity (CLK3 (human)): 90.5%; residual activity (EPHB2 (human)): 98.1%; residual activity (ERBB4 (human)): 35.5%; residual activity (PAK3 (human)): 98.9%; residual activity (AKT1 (human)): 89.9%; residual activity (IKBKB (human)): 102%; residual activity (MAPKAPK2 (human)): 98%; residual activity (PASK (human)): 90.2%; residual activity (PRKCG (human)): 105%

`O=C1NC(=O)c2c1c1c3ccccc3n3c1c1c2c2ccccc2n1C1CCC3O1` was tested. Which residual activity (NEK11 (human)) did it give?
Its residual activity is 60.6%.

What about the residual activity (CAMKK2 (human)) of the same compound?
The residual activity was 7.93%.

And the residual activity (CDK4 CCND1 (human))?
The residual activity was 11.2%.

And the residual activity (IKBKE (human))?
Its residual activity is 23.9%.

What about the residual activity (EPHA8 (human)) of the same compound?
Its residual activity is 89.9%.

And the residual activity (GRK4 (human))?
The residual activity was 77%.

And the residual activity (MAP4K5 (human))?
Its residual activity is 2.69%.

And the residual activity (PRKACA (human))?
Its residual activity is 44.7%.

What about the residual activity (MAP4K4 (human)) of the same compound?
Its residual activity is 0.995%.

What about the residual activity (PRKCA (human)) of the same compound?
Its residual activity is 13.9%.

What about the residual activity (RET (human)) of the same compound?
The residual activity was 3.21%.

And the residual activity (PLK2 (human))?
The residual activity was 62.4%.

What about the residual activity (RAF1 (human)) of the same compound?
Its residual activity is 121%.

And the residual activity (DYRK3 (human))?
The residual activity was 16.6%.

And the residual activity (CSNK2A2 (human))?
Its residual activity is 4.47%.

What about the residual activity (PDGFRB (human)) of the same compound?
Its residual activity is 19.1%.

And the residual activity (CSNK1A1 (human))?
The residual activity was 104%.

What about the residual activity (TSSK2 (human)) of the same compound?
The residual activity was 87.1%.

And the residual activity (PRKD3 (human))?
The residual activity was -0.0451%.

What about the residual activity (RPS6KA5 KD2 (human)) of the same compound?
Its residual activity is 9.88%.

What about the residual activity (ADRBK2 (human)) of the same compound?
The residual activity was 101%.

And the residual activity (CSNK1E (human))?
Its residual activity is 47.3%.

What about the residual activity (MAP3K7 TAB1 (human)) of the same compound?
The residual activity was 6.06%.

And the residual activity (MYLK2 (human))?
The residual activity was 7.76%.

And the residual activity (KDR (human))?
Its residual activity is 4.55%.

What about the residual activity (MUSK (human)) of the same compound?
The residual activity was 25.8%.

And the residual activity (PKN1 (human))?
Its residual activity is 2.68%.

What about the residual activity (EPHA5 (human)) of the same compound?
The residual activity was 78.7%.

And the residual activity (INSR (human))?
Its residual activity is 17.2%.

What about the residual activity (STK11 (human)) of the same compound?
The residual activity was 50.5%.

And the residual activity (MLTK (human))?
Its residual activity is 89.7%.

What about the residual activity (MAP3K14 (human)) of the same compound?
Its residual activity is 134%.

What about the residual activity (FLT1 (human)) of the same compound?
Its residual activity is 13.3%.

What about the residual activity (CLK3 (human)) of the same compound?
The residual activity was 97%.

And the residual activity (EPHB2 (human))?
Its residual activity is 98.4%.

What about the residual activity (ERBB4 (human)) of the same compound?
Its residual activity is 72.5%.

What about the residual activity (PAK3 (human)) of the same compound?
The residual activity was 41.7%.

What about the residual activity (AKT1 (human)) of the same compound?
Its residual activity is 63.9%.

What about the residual activity (IKBKB (human)) of the same compound?
Its residual activity is 97.8%.

What about the residual activity (MAPKAPK2 (human)) of the same compound?
The residual activity was 99.2%.

What about the residual activity (PASK (human)) of the same compound?
Its residual activity is 43.3%.

What about the residual activity (PRKCG (human)) of the same compound?
Its residual activity is 32.8%.
